Measured values reported in PMC10671313, “First Gallium and Indium Crystal Structures of Curcuminoid Homoleptic Complexes: All-Different Ligand Stereochemistry and Cytotoxic Potential” (International Journal of Molecular Sciences, 2023).
“Also recorded” adds a separate entry of the source. Like-named read-outs stand apart in the source and are kept apart here.

How the values were obtained:
Type in all cases: cell-based
[1] = system: U251 (human glioblastoma); test: SRB cytotoxicity assay, U251 cells
Method: (§1) The cytotoxicity of all compounds was assessed against several cancer cell lines, namely U251 (human glioblastoma), PC-3 (human prostate adenocarcinoma), K562 (human chronic myelogenous leukemia), HCT-15 (human colon adenocarcinoma), MCF-7 (human mammary adenocarcinoma), SKLU-1 (human lung adenocarcinoma), and COS-7 (non-tumoral monkey kidney). These cell lines were obtained from the U.S. National Cancer Institute (NCI) (Montgomery County, MD, USA). The cells were cultured in RPMI-1640 medium supplemented with 10% fetal bovine serum, 2 mM L-glutamine, 10,000 units/mL penicillin G sodium, 10,000 μg/mL streptomycin sulfate, 25 μg/mL amphotericin B (Invitrogen/Gibco^TM, Thermo Fisher Scientific, Waltham, MA, USA), and 1% non-essential amino acids (Gibco). They were maintained at a temperature of 37 °C in a humidified atmosphere containing 5% CO2. The experiment’s cell viability exceeded 95%, as determined using trypan blue staining. To evaluate the cytotoxicity on human tumor cells, the protein-binding dye sulforhodamine B (SRB) was employed in a microculture assay, following the protocols established by the NCI [52, 53, 54]. The results were reported as IC50 values, representing the inhibitory concentration required for 50% inhibition. The IC50 values were determined using the Monks protocol, which involved plotting dose-response curves for each compound and estimating the concentration (IC50) at which a 50% inhibition was observed through non-linear regression analysis.

[2] = system: HCT-15 (human colon adenocarcinoma); test: SRB cytotoxicity assay, HCT-15 cells
Method: as §1

[3] = system: MCF-7 (human mammary adenocarcinoma); test: SRB cytotoxicity assay, MCF-7 cells
Method: as §1

[4] = system: COS-7 (non-tumoral monkey kidney); test: SRB cytotoxicity assay, COS-7 non-tumoral cells
Method: as §1

[5] = system: K562 (human chronic myelogenous leukemia); test: SRB cytotoxicity assay, K562 cells
Method: as §1

[6] = system: PC-3 (human prostate adenocarcinoma); test: SRB cytotoxicity assay, PC-3 cells
Method: as §1

[7] = system: SKLU-1 (human lung adenocarcinoma); test: SRB cytotoxicity assay, SKLU-1 cells
Method: as §1

[8] = U251 cell line, SRB assay, read-out: IC50 U251
[9] = HCT15 cell line, SRB assay, read-out: IC50 HCT15
[10] = MCF7 cell line, SRB assay, read-out: IC50 MCF7
[11] = non-cancerous COS-7 cells, SRB assay, read-out: IC50 COS-7
[12] = K562 cell line, SRB assay, read-out: IC50 K562
[13] = PC-3 cell line, SRB assay, read-out: IC50 PC-3
[14] = SKLU-1 cell line, SRB assay, read-out: IC50 SKLU-1

For `COc1ccc(/C=C/C(=O)/C=C(O)/C=C/c2ccc(OC)c(OC)c2)cc1OC` [DiMeOC, Dimethoxycurcumin], the IC50 ([1]; Homo sapiens, U-251, read-out: IC50 U251) was 2.02 ± 0.07 µM, the IC50 ([2]; Homo sapiens, HCT-15, read-out: IC50 HCT15) was 6.6 ± 0.3 µM and the IC50 ([3]; Homo sapiens, MCF7, read-out: IC50 MCF7) was 6.9 ± 1 µM. It also gave an IC50 ([4]; Primates, COS-7, read-out: IC50 COS-7) of 2.02 ± 0.07 µM, an IC50 ([5]; Homo sapiens, K562, read-out: IC50 K562) of 6.5 ± 1.4 µM and an IC50 ([6]; Homo sapiens, PC-3, read-out: IC50 PC-3) of 5.9 ± 0.6 µM. The IC50 ([7]; Homo sapiens, SK-LU-1, read-out: IC50 SKLU-1) was 7.2 ± 0.4 µM.

Curcumin [reference compound] was tested, and the IC50 [1, 8] was 20.5 ± 1.7 µM, the IC50 [2, 9] was 21.3 ± 0.9 µM and the IC50 [3, 10] was 18.4 ± 0.9 µM. For the same compound, the IC50 [4, 11] was 21.8 ± 2.1 µM, the IC50 [5, 12] was 16.4 ± 0.04 µM and the IC50 [6, 13] was 22.5 ± 1.9 µM. For the same compound, the IC50 [7, 14] was 12.9 ± 0.7 µM.

Dimethoxycurcumin indium [(DiMeOC)3-In] showed an IC50 [1, 8] of 6.3 ± 0.6 µM, an IC50 [2, 9] of 7.9 ± 0.2 µM and an IC50 [3, 10] of 9.7 ± 0.4 µM. For the same compound, the IC50 [6, 13] was 7.6 ± 0.05 µM and the IC50 [7, 14] was 6.2 ± 0.4 µM.

With “Dimethoxycurcumin gallium [(DiMeOC)2-Ga]” the “Selectivity: IC50 in COS-7 compared to U251” value ([1]; COS-7 vs U251, times less cytotoxic) was 4 times, the IC50 [1, 8] was 5.3 ± 0.1 µM and the IC50 [3, 10] was 15.5 ± 0.4 µM. The “Toxicity relative to cisplatin” value ([4]; lower toxicity than cisplatin (non-cancerous COS-7)) was “three times lesser toxicity than cisplatin; also recorded: up to three times lower toxicity than cisplatin”, the IC50 [4, 11] was 23.2 ± 1.9 µM and the “Selectivity: IC50 in COS-7 compared to K562” value ([5]; COS-7 vs K562, times less cytotoxic) was 11 times. For the same compound, the IC50 [5, 12] was 2 ± 0.2 µM, the “Selectivity: IC50 in COS-7 compared to PC-3” value ([6]; COS-7 vs PC-3, times less cytotoxic) was 2 times and the IC50 [6, 13] was 10.5 ± 0.3 µM.

In the case of `N.N.[Cl][Pt][Cl]` [Cisplatin, reference compound], the IC50 [2, 9] is reported as 10 ± 0.9 µM.
